Data on 36 compounds can be found in US8604061B2, “2-aminooxazolines as TAAR1 ligands” (Hoffmann-La Roche Inc., priority 2007, dated 2013).

One test concerns the target TAAR1 (Mus musculus, UniProt Q923Y8). The experiment in a line: TAAR1 radioligand binding, membranes of stably transfected HEK293 cells (mouse).
Settings: not given
Here is the method:
For the construction of expression plasmids the coding sequences of human, rat and mouse TAAR 1 were amplified from genomic DNA essentially as described by Lindemann et al.. The Expand High Fidelity PCR System (Roche Diagnostics) was used with 1.5 mM Mg^2+ and purified PCR products were cloned into pCR2.1-TOPO cloning vector (Invitrogen) following the instructions of the manufacturer. PCR products were subcloned into the pIRESneo2 vector (BD Clontech, Palo Alto, Calif.), and expression vectors were sequence verified before introduction in cell lines.
HEK293 cells (ATCC #CRL-1573) were cultured essentially as described Lindemann et al. (2005). For the generation of stably transfected cell lines HEK293 cells were transfected with the pIRESneo2 expression plasmids containing the TAAR coding sequences (described above) with Lipofectamine 2000 (Invitrogen) according to the instructions of the manufacturer, and 24 hrs post transfection the culture medium was supplemented with 1 mg/ml G418 (Sigma, Buchs, Switzerland). After a culture period of about 10 d clones were isolated, expanded and tested for responsiveness to trace amines (all compounds purchased from Sigma) with the cAMP Biotrak Enzyme immunoassay (EIA) System (Amersham) following the non-acetylation EIA procedure provided by the manufacturer.
Cells at confluence were rinsed with ice-cold phosphate buffered saline without Ca^2+ and Mg^2+ containing 10 mM EDTA and pelleted by centrifugation at 1000 rpm for 5 min at 4° C. The pellet was then washed twice with ice-cold phosphate buffered saline and cell pellet was frozen immediately by immersion in liquid nitrogen and stored until use at −80° C. Cell pellet was then suspended in 20 ml HEPES-NaOH (20 mM), pH 7.4 containing 10 mM EDTA, and homogenized with a Polytron (PT 3000, Kinematica) at 10,000 rpm for 10 s. The homogenate was centrifuged at 48,000×g for 30 min at 4° C. and the pellet resuspended in 20 ml HEPES-NaOH (20 mM), pH 7.4 containing 0.1 mM EDTA (buffer A), and homogenized with a Polytron at 10,000 rpm for 10 s. The homogenate was then centrifuged at 48,000×g for 30 min at 4° C. and the pellet resuspended in 20 ml buffer A, and homogenized with a Polytron at 10,000 rpm for 10 s. Protein concentration was determined by the method of Pierce (Rockford, Ill.). The homogenate was then centrifuged at 48,000×g for 10 min at 4° C., resuspended in HEPES-NaOH (20 mM), pH 7.0 including MgCl2 (10 mM) and […] homogenized with a Polytron at 10,000 rpm for 10 s.
Binding assay was performed at 4° C. in a final volume of 1 ml, and with an incubation time of 30 min. […] Non-specific binding was defined as the amount of [^3H]-rac-2-(1,2,3,4-tetrahydro-1-naphthyl)-2-imidazoline bound in the presence of the appropriate unlabelled ligand (10 μM). Competing ligands were tested in a wide range of concentrations (10 pM-30 μM). […] Each experiment was performed in duplicate. All incubations were terminated by rapid filtration through UniFilter-96 plates (Packard Instrument Company) and glass filter GF/C, pre-soaked for at least 2 h in polyethylenimine 0.3%, and using a Filtermate 96 Cell Harvester (Packard Instrument Company). The tubes and filters were then washed 3 times with 1 ml aliquots of cold buffer B. Filters were not dried and soaked in Ultima gold (45 μl/well, Packard Instrument Company) and bound radioactivity was counted by a TopCount Microplate Scintillation Counter (Packard Instrument Company).
With `CC1(c2cc(Cl)ccc2Cl)COC(N)=N1` (racemic) [Example 299, (RS)-4-(2,5-Dichloro-phenyl)-4-methyl-4,5-dihydro-oxazol-2-ylamine], the Ki was determined as 0.0042 µM.

Regarding `NC1=NC(c2ccc(Cl)cc2C(F)(F)F)CO1` (racemic) [Example 226, (RS)-4-(4-Chloro-2-trifluoromethyl-phenyl)-4,5-dihydro-oxazol-2-ylamine], the Ki was determined as 0.0054 µM. The same measure, in the same setting: the result for `COc1ccc(C2COC(N)=N2)c(C(F)(F)F)c1` (racemic) [Example 229, (RS)-4-(4-Methoxy-2-trifluoromethyl-phenyl)-4,5-dihydro-oxazol-2-ylamine] reads less than 3 µM. On the same count and under the same terms, the figure for `NC1=NC(c2cccc(Br)c2)CO1` (racemic) [Example 186, (RS)-4-(3-Bromo-phenyl)-4,5-dihydro-oxazol-2-ylamine] is 0.0045 µM; for `NC1=NC(c2cc(F)ccc2F)CO1` (racemic) [Example 16, (RS)-4-(2,5-Difluoro-phenyl)-4,5-dihydro-oxazol-2-ylamine] it is 0.0048 µM; for `NC1=NC(c2ccc(Cl)c(Cl)c2)CO1` (racemic) [Example 14, (RS)-4-(3,4-Dichlorophenyl)-4,5-dihydro-oxazol-2-ylamine] it is 0.0005 µM. Still for that read-out and setting: the figure for `Cc1cc(C2(C)COC(N)=N2)ccc1Cl` (racemic) [Example 263, (RS)-4-(4-Chloro-3-methyl-phenyl)-4-methyl-4,5-dihydro-oxazol-2-ylamine] is 0.0023 µM. Regarding `NC1=NC(c2cc(Cl)ccc2F)CO1` (racemic) [Example 19, (RS)-4-(5-Chloro-2-fluoro-phenyl)-4,5-dihydro-oxazol-2-ylamine], the Ki stood at 0.0018 µM. On the same count and under the same terms, the result for `Cc1cccc(CC[C@H]2COC(N)=N2)c1` [Example 115, (S)-4-(2-m-Tolyl-ethyl)-4,5-dihydro-oxazol-2-ylamine] reads 0.001 µM.

Still in this test, the particulars now being: mouse/rat; cell not marked 'rat'; radioligand [3H]-rac-2-(1,2,3,4-tetrahydro-1-naphthyl)-2-imidazoline, 4° C.; read-out: Ki (μM) mouse/rat.
In the case of `C[C@]1(c2ccc(F)c(Cl)c2)COC(N)=N1` [Example 277, (S)-4-(3-chloro-4-fluoro-phenyl)-4-methyl-4,5-dihydro-oxazol-2-ylamine], the Ki is 0.0016 µM. The same measure, in the same setting: the result for `C[C@]1(c2cc(Cl)ccc2F)COC(N)=N1` [Example 270, (S)-4-(5-Chloro-2-fluoro-phenyl)-4-methyl-4,5-dihydro-oxazol-2-ylamine] reads 0.0016 µM; that for `Cc1ccccc1CC[C@H]1COC(N)=N1` [Example 114, (S)-4-(2-o-Tolyl-ethyl)-4,5-dihydro-oxazol-2-ylamine], 0.0021 µM; that for `NC1=N[C@@H](c2ccc(Br)cc2)CO1` [Example 105, (S)-4-(4-Bromo-phenyl)-4,5-dihydro-oxazol-2-ylamine], 0.0007 µM. As for `NC1=N[C@@H](c2ccc(Cl)cc2C(F)(F)F)CO1` [Example 238, (+)-(S)-4-(4-Chloro-2-trifluoromethyl-phenyl)-4,5-dihydro-oxazol-2-ylamine], the Ki was 0.003 µM. Still for that read-out and setting: the figure for `NC1=N[C@H](c2ccc(Cl)cc2Cl)CO1` [Example 295, (−)-(R)-4-(2,4-Dichloro-phenyl)-4,5-dihydro-oxazol-2-ylamine] is 0.0082 µM; for `Cc1cc([C@@]2(C)COC(N)=N2)c(F)cc1Cl` [Example 308, (S)-4-(4-Chloro-2-fluoro-5-methyl-phenyl)-4-methyl-4,5-dihydro-oxazol-2-ylamine] it is 0.0009 µM. The same measure, in the same setting: the figure for `CCc1cc(Cl)ccc1[C@H]1COC(N)=N1` [Example 364, (+)-(S)-4-(4-Chloro-2-ethyl-phenyl)-4,5-dihydro-oxazol-2-ylamine] is 0.002 µM. The same measure, in the same setting: the figure for `NC1=N[C@@H](c2ccc(F)c(Cl)c2)CO1` [Example 172, (S)-4-(3-chloro-4-fluoro-phenyl)-4,5-dihydro-oxazol-2-ylamine] is 0.0019 µM; for `NC1=N[C@@H](c2cc(F)cc(F)c2F)CO1` [Example 118, (S)-4-(2,3,5-Trifluoro-phenyl)-4,5-dihydro-oxazol-2-ylamine] it is 0.003 µM. Regarding `NC1=N[C@@H](CCc2ccc(C(F)(F)F)cc2)CO1` [Example 119, (S)-4-[2-(4-Trifluoromethyl-phenyl)-ethyl]-4,5-dihydro-oxazol-2-ylamine], the Ki came out at 0.0026 µM. Turning to `NC1=N[C@@H](CCc2cc(Cl)cc(Cl)c2)CO1` [Example 138, (S)-4-[2-(3,5-Dichloro-phenyl)-ethyl]-4,5-dihydro-oxazol-2-ylamine], the Ki is 0.0012 µM.

Consider `NC1=N[C@@H](Cc2cccc(C(F)(F)F)c2)CO1` [Example 63, (S)-4-(3-Trifluoromethyl-benzyl)-4,5-dihydro-oxazol-2-ylamine], for which the Ki worked out at 0.0086 µM.

As for `C[C@@H](C[C@H]1COC(N)=N1)c1ccccc1` [82 (S, S), (S)-4-((S)-2-phenyl-propyl)-4,5-dihydro-oxazol-2-ylamine], the Ki worked out at 0.008 µM. Same read-out and setting: the result for `C[C@@]1(c2ccccc2F)COC(N)=N1` [Example 196, (R)-4-(2-Fluoro-phenyl)-4-methyl-4,5-dihydro-oxazol-2-ylamine] reads 0.0066 µM; that for `C[C@]1(c2cc(F)c(Cl)cc2F)COC(N)=N1` [Example 289, (S)-4-(4-Chloro-2,5-difluoro-phenyl)-4-methyl-4,5-dihydro-oxazol-2-ylamine], 0.0017 µM. On the same count and under the same terms, the figure for `NC1=N[C@@H](CC2(c3ccccc3)CC2)CO1` [Example 342, (S)-4-(1-Phenyl-cyclopropylmethyl)-4,5-dihydro-oxazol-2-ylamine] is 0.0045 µM; for `NC1=N[C@@H](c2ccc(Cl)cc2C2CC2)CO1` [Example 369, (+)-(S)-4-(4-Chloro-2-cyclopropyl-phenyl)-4,5-dihydro-oxazol-2-ylamine] it is 0.0009 µM. In the case of `NC1=N[C@@H](COc2ccc(Cl)cc2)CO1` [Example 216, (S)-4-(4-Chloro-phenoxymethyl)-4,5-dihydro-oxazol-2-ylamine], the Ki was found to be 0.002 µM.

As to `NC1=N[C@@H](c2ccc(Cl)cc2Cl)CO1` [Example 296, (+)-(S)-4-(2,4-Dichloro-phenyl)-4,5-dihydro-oxazol-2-ylamine], the Ki is 0.0004 µM. Same read-out and setting: the result for `NC1=N[C@@H](Cc2cccc3ccccc23)CO1` [Example 48, (S)-4-Naphthalen-1-ylmethyl-4,5-dihydro-oxazol-2-ylamine] reads 0.0002 µM. Turning to `NC1=N[C@@H](CCc2ccccc2)CO1` [Example 80 (S), (S)-4-Phenethyl-4,5-dihydro-oxazol-2-ylamine], the Ki turned out to be 0.0008 µM. Same read-out and setting: the figure for `NC1=N[C@@H](c2ccc(Cl)c(Cl)c2)CO1` [Example 91, (S)-4-(3,4-Dichloro-phenyl)-4,5-dihydro-oxazol-2-ylamine] is 0.0006 µM; for `Cc1cc(CC[C@H]2COC(N)=N2)ccn1` [Example 220, (S)-4-[2-(2-Methyl-pyridin-4-yl)-ethyl]-4,5-dihydro-oxazol-2-ylamine] it is 0.0084 µM.

As for `NC1=N[C@@H](CCc2cc(C(F)(F)F)ccc2C(F)(F)F)CO1` [Example 160, (S)-4-[2-(2,5-Bis-trifluoromethyl-phenyl)-ethyl]-4,5-dihydro-oxazol-2-ylamine], the Ki worked out at 0.0028 µM. Still for that read-out and setting: the result for `NC1=N[C@@H](CCc2ccncc2F)CO1` [Example 158, (S)-4-[2-(3-Fluoro-pyridin-4-yl)-ethyl]-4,5-dihydro-oxazol-2-ylamine] reads 0.0068 µM; that for `NC1=N[C@@H](COc2ccc(F)cc2)CO1` [Example 213, (S)-4-(4-Fluoro-phenoxymethyl)-4,5-dihydro-oxazol-2-ylamine], 0.003 µM.
